Assay [1] deals with T1, Sphingobacterium multivorum SPT (Sphingobacterium multivorum, UniProt A7BFV6).
T1 construct: harboring the plasmid expressing the full-length SPT; made in house; host or cells: Escherichia coli BL21 (DE3) pLysS
Briefly: Chiral HPLC of 7-methoxycoumarin-labeled KDS enantiomers after SPT reaction or incubation. Type of assay: biochemical. The settings on record: 1.3 mM KDS incubated with 230 μM SPT, 37 °C, 120 min. The text has this:
KDS has a chiral center at the C2 position to which hydrogen, hydroxymethyl, amino, and acyl groups are attached. In the present study, it was necessary to know which optical isomer, (2S)- or (2R)-KDS, was formed from D-serine. In order to detect KDS enantiomers, we developed a new method in which each enantiomer of 7-methoxycoumarin-labeled KDS was separated and quantified by chiral HPLC (Fig. 2A). First, the standard compounds (2S)-2-amino-1-hydroxyoctadecan-3-one (L-serine–type (2S)-KDS) and (2R)-2-amino-1-hydroxyoctadecan-3-one (D-serine–type (2R)-KDS) were chemically synthesized (Supporting information). Next, the conditions for fluorescence labeling and HPLC were examined using these authentic compounds; the successful separation of KDS enantiomers was achieved by 7-methoxycoumarin labeling of the amino group of KDS (Fig. 2B, lines 1–3). The labeled (2S)-KDS and (2R)-KDS were eluted at 7.7 and 8.9 min, respectively, with the calculated separation factor of 1.3 (Fig. 2B, line 3). When the SPT reaction product derived from L-serine was analyzed, two fluorescence peaks were detected (Fig. 2B, line 4). […] Similarly, for the SPT reaction product derived from D-serine, two fluorescence peaks corresponding to 7-methoxycoumarin-labeled (2S)-KDS and 7-methoxycoumarin-labeled (2R)-KDS were detected (Fig. 2B, line 5). […]

Assay [2] has as its target T1, Sphingobacterium multivorum SPT. Briefly: Spectroscopic titration of SPT with amino acids (422 nm absorption, external aldimine formation). The format is binding. The following applies: 10 μM SPT. How it is done:
(§1) Dependency of the reaction rates on amino acid concentrations under the condition of 1 mM palmitoyl-CoA was examined (Table 1). Each LCB product was quantified by the fluorescence intensity based on the standard curve obtained by using the corresponding authentic compound ([23]). The value of apparent catalytic efficiency ( kcatapp/Kmapp ) for D-serine was 0. 0013 min^–1 mM^–1 and was much smaller than that for L-serine ( kcatapp/Kmapp = 3.6 min^–1 mM^–1). Therefore, the KDS production by SPT from D-serine is considered to be negligible at the physiological concentration of D-serine. Next, binding of D-serine to the S. multivorum SPT was examined by spectroscopic titration. When SPT was incubated with D-serine, spectral changes corresponding to the external aldimine formation between PLP and the amino acid were observed (Supporting information).
Figure S1. Spectroscopic titration of the S. multivorum SPT with D-serine or α-methyl-D-serine. (A) Absorption spectra of SPT (10 μM) in the presence of 0, 2.0, 5.0, 9.9, 15, 20, 29, 38, and 48 mM D-serine (lines 1–9, respectively).
(B) Absorption spectra of SPT (10 μM) in the presence of 0, 3.0, 6.0, 9.9, 20, 34, 52, 74, and 99 mM α-methyl-D-serine (lines 1–9, respectively).
Determination of dissociation constants (Kd) for amino acids.
The titration assay was carried out as previously reported (1). The changes of the 422 nm-absorption intensities of SPT upon addition of amino acids were plotted against the final concentrations of the amino acids, and the Kd values were calculated by fitting to a hyperbolic saturation curve using Igor Pro 6.37. software (Wave Matrix Inc., Lake Oswego, Oregon, […]
United States). […]

The target is the same in assay [3]. In words: Steady-state kinetics of LCB (KDS) formation by SPT. The settings on record: 1 mM palmitoyl-CoA. Type of assay: biochemical. How it is done: as §1
The assay was performed as previously reported ([23]). For qualitative analysis, 500 mM of L-serine or D-serine was incubated with 1 mM palmitoyl-CoA and 100 μM SPT in 100 μl of 100 mM potassium phosphate, pH 7.5, at 37 °C for 60 min. [1-^14C] palmitoyl-CoA (20 kBq/μmol) was supplemented into the above reaction mixture as the tracer. The reactions were terminated by addition of the equal volume of 2 N ammonia. Lipids were extracted by successive addition and mixing of 750 μl of chloroform/methanol (1:2, v/v), 250 μl of chloroform, and 250 μl of 1% KCl. Phases were separated by centrifugation, and the organic phase was recovered. […] For the quantitative analysis, the UV-fluorescence intensities of the reaction products on TLC plates were visualized by a Fusion chemiluminescence imaging system using a UV-light box and analyzed by a FUSION Capt software (Vilber Lourmat).
Steady-state kinetic parameters were determined by varying the concentrations of D-serine in the presence of 1 mM palmitoyl-CoA in 100 μl of 100 mM potassium phosphate, pH 7.5, at 37 °C. […] The reaction termination, lipid extraction, TLC analysis, and quantification of the reaction products on TLC plates were described above. […]

Assay [4] shares this target. In words: Serine racemase assay of SPT (fluorescence derivatization, reverse-phase HPLC). The format is biochemical. The settings on record: 1 mM D-serine, 47 μM SPT, 37 °C, no palmitoyl-CoA.
Protocol: In order to verify the possibility of conversion between D-serine and L-serine, the serine racemase activity of SPT in the absence of palmitoyl-CoA was examined by the combination of fluorescence labeling and reverse-phase HPLC (Fig. 4).
One millimolar L-serine or D-serine was incubated with or without 47 μM SPT at 37 °C for 24 h. […] The reaction mixture containing 1 mM serine and 47 μM SPT was incubated at 37 °C for 1 to 24 h. […] The reaction mixture contained 1 mM serine and either or both of 1 mM PLP and 47 μM SPT.
Serine racemase assay of SPT was performed by determining the amount of each antipodal serine derivative formed from D-serine or L-serine as previously reported with some modifications ([48]). After D/L-serine was derivatized to fluorescent diastereomer, the enantioselective detection of serine was performed on an HPLC system with a Multi lambda Fluorescence Detector (Waters Corporation). The reaction was carried out at 37 °C for 1 to 24 h in a reaction mixture (100 μl) containing 100 mM Tris/HCl buffer (pH 7.5), 1 mM D/L-serine, and 47 μM SPT with or without 1 mM PLP. […] For fluorescence detection, the excitation and emission wavelengths were 350 nm and 450 nm, respectively. […]
The target is the same in assay [5]. Briefly: TLC/autoradiography analysis of KDS formation. Type of assay: biochemical. The following applies: 500 mM serine, 1 mM [1-14C]-palmitoyl-CoA, 100 μM SPT, 37 °C, 60 min. The text has this:
We previously reported that the KDS formation from D-serine was not detected under physiological assay conditions using S. paucimobilis SPT ([15], [47]). […] Each reaction product was ninhydrin-positive with the specific color and the Rf value, which corresponded to those of a commercial authentic KDS on the TLC plate (Fig. 1A, lanes 2 and 4). […] Such radioactive reaction products were not detected under the reaction condition lacking the amino acid substrate or SPT. The structure of the reaction product derived from each serine enantiomer was confirmed by HPLC/triple quadrupole/linear ion trap mass spectrometry using a commercially available authentic KDS as the standard (Fig. 1C).
Figure 1 Formation of KDS from L-serine and D-serine by the Sphingobacterium multivorum SPT.A, image of the TLC analysis of KDS visualized with ninhydrin reagent: lane 1, extract of the reaction mixture without the amino acid substrate; lane 2, extract of the reaction mixture with L-serine; lane 3, commercial authentic KDS (L-serine–derived, (2S)-KDS); lane 4, extract of the reaction mixture with D-serine; lane 5, extract of the reaction mixture without SPT. The complete reaction mixture contained 500 mM L-/D-serine, 1 mM palmitoyl-CoA, and 100 μM SPT and was incubated at 37 °C for 60 min. […] Radioactivity was incorporated to the reaction product from the substrate [1-^14C]-palmitoyl-CoA. […]

The target is the same in assay [6]. On the set-up: method as in PMID 23957439. The settings on record: 1 mM palmitoyl-CoA; cited from earlier work.
Assay [7] shares this target. Set-up: method as in PMID 23957439. The settings on record: spectroscopic titration; cited from earlier work.

Molecules are shown by their SMILES. Where “and” joins values, the source holds several entries; their conditions need not be identical. Equal entries are not always repeated. Where two headings read alike, the source gives them in different places. Marks after values point to notes of the source that are not given here.

T1 sequence (A7BFV6 whole entry): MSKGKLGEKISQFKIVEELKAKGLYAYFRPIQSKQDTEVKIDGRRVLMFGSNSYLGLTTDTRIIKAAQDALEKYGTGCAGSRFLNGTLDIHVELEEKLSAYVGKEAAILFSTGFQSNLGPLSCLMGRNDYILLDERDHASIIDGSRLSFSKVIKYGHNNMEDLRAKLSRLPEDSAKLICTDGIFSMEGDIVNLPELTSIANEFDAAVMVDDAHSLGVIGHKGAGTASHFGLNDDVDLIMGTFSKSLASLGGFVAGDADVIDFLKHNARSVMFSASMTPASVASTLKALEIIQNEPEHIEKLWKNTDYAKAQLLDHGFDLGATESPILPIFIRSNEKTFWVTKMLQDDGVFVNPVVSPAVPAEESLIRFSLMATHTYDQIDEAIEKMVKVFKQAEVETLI

As for `CCCCCCCCCCCCCCCC(=O)[C@H](N)CO` [(2R)-KDS, (2R)-2-amino-1-hydroxyoctadecan-3-one], the “SPT-dependent racemization of KDS enantiomer” value in assay [1] is reported as “the racemized product was formed in each case, albeit in a smaller amount”.

Take `CCCCCCCCCCCCCCCC(=O)[C@@H](N)CO` [(2S)-KDS, (2S)-2-amino-1-hydroxyoctadecan-3-one]: in assay [1], the “SPT-dependent racemization of KDS enantiomer” value is “the racemized product was formed in each case, albeit in a smaller amount”.

`N[C@H](CCO)C(=O)O` [D-homoserine] came in with a Kd in assay [2] of 90 ± 8 mM.

Take `N[C@H](CO)C(=O)O` [D-serine]: the “kcatapp/Kmapp (apparent catalytic efficiency)” value (from here on “kcatapp/Kmapp”) in assay [3] is recorded as 0.0013 min^–1 mM^–1. For the same compound, in assay [3] (10 μM SPT, pH 7.5, 37 °C), the Kmapp was 237.7 ± 44.3 mM and the kcatapp amounted to 0.31 ± 0.02 min^–1. Besides, binding in assay [2] was characterised by a dissociation constant (Kd) of 11 ± 1.8 mM. Also, in assay [4], the “formation rate of L-serine from D-serine (racemization)” value was 0.0020 min^–1. Moreover, the “formation of KDS reaction product” value in assay [5] is given as “the reaction product was formed”.

As to `C[C@H](N)C(=O)O` [L-alanine], in assay [6], the Kmapp was 110 ± 9.0 ^b mM, the kcatapp is reported as 0.42 ± 0.011 ^b min^–1 and the “kcatapp/Kmapp” value is 0.0037 ^b min^–1 mM^–1.

With `N[C@@H](CCO)C(=O)O` [L-homoserine], in assay [6], the Kmapp is 82 ± 14 ^b mM, the kcatapp was 4.5 ± 0.28 ^b min^–1 and the “kcatapp/Kmapp” value is 0.055 ^b min^–1 mM^–1. Also, the Kd in assay [7] was 3.6 ± 0.2 mM.

Turning to `N[C@@H](CO)C(=O)O` [L-serine], in assay [5], the “formation of KDS reaction product” value is recorded as “the reaction product was formed”. Moreover, in assay [6], the Kmapp is listed as 3.6 ± 0.87 ^b mM; the kcatapp was 13 ± 1.0 ^b min^–1; the “kcatapp/Kmapp” value was 3.6 min^–1 mM^–1 and 3.6 ^b min^–1 mM^–1.

Consider `NCC(=O)O` [glycine], for which, in assay [6], the Kmapp is given as 77 ± 8.1 ^b mM, the kcatapp is recorded as 0.008 ± 0.002 ^b min^–1 and the “kcatapp/Kmapp” value is listed as 0.0001 ^b min^–1 mM^–1. For the same compound, the Kd in assay [7] was 71 ± 5.5 mM.

Regarding `C[C@@](N)(CO)C(=O)O` [α-methyl-D-serine, reference compound], in assay [2], the Kd was found to be 27 ± 2.5 mM.

On to `C[C@](N)(CO)C(=O)O` [α-methyl-L-serine, reference compound], for which the Kd in assay [2] worked out at 8.3 ± 1.8 mM.

The values above are taken from PMC10912632, “Racemization of the substrate and product by serine palmitoyltransferase from Sphingobacterium multivorum yields two enantiomers of the product from D-serine” (The Journal of Biological Chemistry, 2024).
